From US20250228958A1, “TSP1 INHIBITOR” (Daiichi Sankyo Company, Limited, priority 2022, published 2025)
Entries after “also recorded” stand apart in the source; their conditions may differ. Starred links: 1 amine or outer side, 2 acyl side, 3 side chain; linkers in the order of their positions; H or OH if unused. Positions of bridges follow the written chain, without caps; N, C: chain ends. Non-standard residues stand in square brackets, D forms with d. Residues, ends and D or L forms follow the SMILES beside them. *: point of attachment. X1 = COCCOCCOCCOCCOCCOCCOCCOCCOCCOCCOCC(=O)N[C@@H](CCCCN*)C(=O)NCCOCCOCCOCCOCCOCCOCCOCCOCCOCCOCCOCCOCCC(=O)NCCOCCOCCOCCOCCOCCOCCOCCOCCOCCOCCOCCOCCC(=O)N[C@@H](CCCCNC(=O)CCN1C(=O)CC(C)C1=O)C(N)=O; 2Nal = N[C@@H](Cc1ccc2ccccc2c1)C(=O)O; Gly(cPent) = N[C@H](C(=O)O)C1CCCC1; Agb = N=C(N)NCC[C@H](N)C(=O)O; hCys = N[C@@H](CCS)C(=O)O; CH2 = C([*:1])[*:2]

What was measured:
[1] = test system: C57BL/6 mice, ischemic limb blood flow; experiment: Blood flow improvement measurement tests (femoral artery/vein ligation and excision, laser Doppler); type: in vivo, mouse; details: for blood flow AUC, % of vehicle group mean: blood flow AUC from beginning to end of measurement, ratio to vehicle-treated group mean; for %, ischemia/nonischemia (blood flow on the last day of measurement): mean ± standard error, ratio of ischemic limb flow to non-ischemic limb flow
Excerpt: Six to seven-week-old C57BL/6 mice were purchased from Charles River Laboratories Japan Inc., and acclimated over six days by feeding with a FR-2 solid diet (produced by Funabashi Farm Co., Ltd.). The rearing facility switched between light and dark modes in a 12-hour cycle with light turning on at 7 a.m. and turning off at 7 p.m. Under isoflurane inhalation anaesthesia, the left thighs of the mice were dissected, and the superficial femoral arteries and veins (from just below the deep femoral arteries to the popliteal artery and vein) were ligated and excised. […] Five mice were used for each treatment group.
Blood flows were measured in ischemic (left) and non-ischemic (right) limbs using a laser Doppler perfusion imager (PeriScan PIM III, Moor LD12-HR). The improvement of blood flow was evaluated by the ratio of ischemic limb flow to non-ischemic limb flow. […] In addition, blood flow AUC was calculated to determine the ratio (%) of the mean value of the test substance-treated group to the mean value of the vehicle-treated group.

[2] = Serum stability test, monkey serum; type: in vitro ADME, cynomolgus monkey; details: male, residual ratio: IS ratio at 4 hours relative to 0 hours, 37° C.
Excerpt: (§1) • Mouse serum (BALB/c CrSlc, male, Japan SLC, Inc.) • Monkey serum (cynomolgus monkey, male, Japan SLC, Inc.) • Human serum (Caucasian, pool of 5 males and 5 females, KAC Co., Ltd.) • Phenacetin (Nacalai Tesque, Inc.) • Niflumic acid (Nacalai Tesque, Inc.) • Furosemide (Nacalai Tesque, Inc.) • Acetonitrile (FUJIFILM Wako Pure Chemical Corporation) • Methanol (FUJIFILM Wako Pure Chemical Corporation) • Formic acid (FUJIFILM Wako Pure Chemical Corporation) • Dimethyl sulfoxide (DMSO) (FUJIFILM Wako Pure Chemical Corporation)
(§2) Solutions of Phenacetin, niflumic acid, and furosemide were prepared in DMSO at 10 μg/ml, 150 μg/ml, and 200 μg/ml, respectively. 10 μg/ml of phenacetin in DMSO, 150 μg/ml of niflumic acid in DMSO, and 200 μg/ml of furosemide in DMSO were dissolved in a mixture of […]/methanol (75/25, v/v) (final concentrations: phenacetin; 1 ng/mL, niflumic acid: 15 ng/mL, and furosemide 20 ng/mL), and formic acid was added to the prepared test solution (final concentration: 1% (v/v)) to prepare a formic acid-containing IS solution.
(§3) The test substances were prepared in DMSO to a concentration of 10 mM each. Further, the solution was diluted with DMSO to a concentration of 2 mM to make a test substance solution.
(§4) Each serum was preincubated at 37° C. for 5 minutes, and then the test substance solution was added to a final concentration of 20 μM to initiate the reaction. The test substance-added serum was incubated at 37° C. At 0 and 4 hours after the start of the reaction, a portion of the serum was taken out and added to the formic acid-containing IS solution to stop the reaction, which was used as a measurement sample.
(§5) The test substance and IS (phenacetin, niflumic acid, and furosemide) in the measurement sample were measured by LC-MS/MS, and the peak area ratio (IS ratio) of the test substance to IS (any of phenacetin, niflumic acid, and furosemide) was calculated.
(§6) The percentage of the IS ratio at 4 hours after the start of the reaction relative to that at 0 hours after the start of the reaction was used as a residual ratio to evaluate serum stability.

[3] = Serum stability test, mouse serum; type: in vitro ADME; details: for remaining at 4 h, 20 μM: male, BALB/c CrSlc, mouse, mouse serum, residual ratio: IS ratio at 4 hours relative to 0 hours, 37° C.; for serum stability (in words): statement covers mouse, monkey and human serum, 4 hours
Excerpt: as §1, §2, §3, §4, §5, §6

[4] = Serum stability test, human serum; type: in vitro ADME; details: both sexes, residual ratio: IS ratio at 4 hours relative to 0 hours, 37° C.
Excerpt: as §1, §2, §3, §4, §5, §6

remaining at 4 h, 20 μM [2] [%]	remaining at 4 h, 20 μM [3] [%]	serum stability (in words) [3]	remaining at 4 h, 20 μM [4] [%]	SMILES	blood flow AUC, % of vehicle group mean ([1]; 0.3 mg/kg) [%]	%, ischemia/nonischemia (blood flow on the last day of measurement) ([1]; 0.3 mg/kg) [%]	blood flow AUC, % of vehicle group mean ([1]; 1 mg/kg) [%]	%, ischemia/nonischemia (blood flow on the last day of measurement) ([1]; 1 mg/kg) [%]
				COCCOCCOCCOCCOCCOCCOCCOCCOCCOCCOCC(=O)N[C@@H](CCCCNC(=O)[C@H](CC(=O)O)NC(=O)[C@H](CC(=O)O)NC(=O)CNC(=O)CNC(=O)CNC(=O)CNC(=O)[C@@H]1CSCC(=O)N[C@@H](Cc2ccc3ccccc3c2)C(=O)N[C@H](CCCNC(=N)N)C(=O)N[C@H]2CCSSCC[C@H](NC(=O)[C@H](Cc3c[nH]c4ccccc34)NC(=O)[C@@H](CC(=O)O)NC(=O)[C@H](CCCNC(=N)N)NC(=O)CNC2=O)C(=O)N[C@H](CCCNC(=N)N)C(=O)N[C@@H](Cc2c[nH]c3ccccc23)C(=O)N[C@@H](C2CCCC2)C(=O)N1)C(=O)NCCOCCOCCOCCOCCOCCOCCOCCOCCOCCOCCOCCOCCC(=O)NCCOCCOCCOCCOCCOCCOCCOCCOCCOCCOCCOCCOCCC(=O)N[C@@H](CCCCNC(=O)CCN1C(=O)CC(C)C1=O)C(N)=O (some centres unmarked) [Conjugate-4] ({CH2CO}-[2Nal][dR][hCys]GR[dD]W[hCys][dR]W[Gly(cPent)]CGGGGDD-X1; disulfide 3-8; thioether N-12)	263.9	54.5 ± 10.2	346.8	76.1 ± 11.2
89.9	88	high serum stability	105	N=C(N)NCCC[C@@H]1NC(=O)CNC(=O)[C@@H]2CCSSCC[C@H](NC(=O)[C@H](Cc3c[nH]c4ccccc34)NC(=O)[C@H](CC(=O)O)NC1=O)C(=O)N[C@@H](CCCNC(=N)N)C(=O)N[C@@H](Cc1c[nH]c3ccccc13)C(=O)N[C@@H](C1CCCC1)C(=O)N[C@H](C(N)=O)CSCC(=O)N[C@@H](Cc1ccc3ccccc3c1)C(=O)N[C@@H](CCCNC(=N)N)C(=O)N2 [Peptide-11] ({CH2CO}-[2Nal]R[hCys]GRDW[hCys]RW[Gly(cPent)]C-NH2; disulfide 3-8; thioether N-12)				
14.9	64.5		78.2	CC(C)[C@@H]1NC(=O)[C@H](Cc2c[nH]c3ccccc23)NC(=O)[C@H](CC(N)=O)NC(=O)[C@H](CCNC(=N)N)NC(=O)CNC(=O)[C@H](CO)NC(=O)[C@H](CCCNC(=N)N)NC(=O)[C@H](Cc2ccc3ccccc3c2)NC(=O)CSC[C@@H](C(N)=O)NC(=O)[C@H](C2CCCC2)NC(=O)[C@H](Cc2c[nH]c3ccccc23)NC(=O)[C@H](CCCNC(=N)N)NC1=O [Peptide-115] ({CH2CO}-[2Nal]RSG[Agb]NWVRW[Gly(cPent)]C-NH2; thioether N-12)				
21.1	70.9		88.5	CC(C)[C@@H]1NC(=O)[C@H](Cc2c[nH]c3ccccc23)NC(=O)[C@H](CC(=O)O)NC(=O)[C@H](CCNC(=N)N)NC(=O)CNC(=O)[C@H](CO)NC(=O)[C@H](CCCNC(=N)N)NC(=O)[C@H](Cc2ccc3ccccc3c2)NC(=O)CSC[C@@H](C(N)=O)NC(=O)[C@H](C2CCCC2)NC(=O)[C@H](Cc2c[nH]c3ccccc23)NC(=O)[C@H](CCCNC(=N)N)NC1=O [Peptide-119]				
100	98.3		99.6	N=C(N)NCCC[C@@H]1NC(=O)CNC(=O)[C@@H]2CSSCC[C@H](NC(=O)[C@H](Cc3c[nH]c4ccccc34)NC(=O)[C@H](CC(=O)O)NC1=O)C(=O)N[C@@H](CCCNC(=N)N)C(=O)N[C@@H](Cc1c[nH]c3ccccc13)C(=O)N[C@@H](C1CCCC1)C(=O)N[C@H](C(N)=O)CSCC(=O)N[C@@H](Cc1ccc3ccccc3c1)C(=O)N[C@@H](CCCNC(=N)N)C(=O)N2 [Peptide-126] ({CH2CO}-[2Nal]RCGRDW[hCys]RW[Gly(cPent)]C-NH2; disulfide 3-8; thioether N-12)				
95.1	90		97.5	N=C(N)NCCC[C@@H]1NC(=O)CNC(=O)[C@@H]2CCSCSCC[C@H](NC(=O)[C@H](Cc3c[nH]c4ccccc34)NC(=O)[C@H](CC(=O)O)NC1=O)C(=O)N[C@@H](CCCNC(=N)N)C(=O)N[C@@H](Cc1c[nH]c3ccccc13)C(=O)N[C@@H](C1CCCC1)C(=O)N[C@H](C(N)=O)CSCC(=O)N[C@@H](Cc1ccc3ccccc3c1)C(=O)N[C@@H](CCCNC(=N)N)C(=O)N2 [Peptide-127] ({CH2CO}-[2Nal]R[hCys]GRDW[hCys]RW[Gly(cPent)]C-NH2; linker 3-8 via CH2; thioether N-12)				
98.6	98.1		99	N=C(N)NCCC[C@@H]1NC(=O)CNC(=O)[C@@H]2CSSC[C@H](NC(=O)[C@H](Cc3c[nH]c4ccccc34)NC(=O)[C@H](CC(=O)O)NC1=O)C(=O)N[C@@H](CCCNC(=N)N)C(=O)N[C@@H](Cc1c[nH]c3ccccc13)C(=O)N[C@@H](C1CCCC1)C(=O)N[C@H](C(N)=O)CSCC(=O)N[C@@H](Cc1ccc3ccccc3c1)C(=O)N[C@@H](CCCNC(=N)N)C(=O)N2 [Peptide-128] ({CH2CO}-[2Nal]RCGRDWCRW[Gly(cPent)]C-NH2; disulfide 3-8; thioether N-12)				
93.5	98	high serum stability	88	N=C(N)NCCC[C@@H]1NC(=O)CNC(=O)[C@@H]2CSCSC[C@H](NC(=O)[C@H](Cc3c[nH]c4ccccc34)NC(=O)[C@H](CC(=O)O)NC1=O)C(=O)N[C@@H](CCCNC(=N)N)C(=O)N[C@@H](Cc1c[nH]c3ccccc13)C(=O)N[C@@H](C1CCCC1)C(=O)N[C@H](C(N)=O)CSCC(=O)N[C@@H](Cc1ccc3ccccc3c1)C(=O)N[C@@H](CCCNC(=N)N)C(=O)N2 [Peptide-130] ({CH2CO}-[2Nal]RCGRDWCRW[Gly(cPent)]C-NH2; linker 3-8 via CH2; thioether N-12)				
89.2	89.2	high serum stability	101	N=C(N)NCCC[C@@H]1NC(=O)CNC(=O)[C@@H]2CSCSCC[C@H](NC(=O)[C@H](Cc3c[nH]c4ccccc34)NC(=O)[C@H](CC(=O)O)NC1=O)C(=O)N[C@@H](CCCNC(=N)N)C(=O)N[C@@H](Cc1c[nH]c3ccccc13)C(=O)N[C@@H](C1CCCC1)C(=O)N[C@H](C(N)=O)CSCC(=O)N[C@@H](Cc1ccc3ccccc3c1)C(=O)N[C@@H](CCCNC(=N)N)C(=O)N2 [Peptide-131] ({CH2CO}-[2Nal]RCGRDW[hCys]RW[Gly(cPent)]C-NH2; linker 3-8 via CH2; thioether N-12)				

SMILES	remaining at 4 h, 20 μM [2] [%]	remaining at 4 h, 20 μM [3] [%]	serum stability (in words) [3]	remaining at 4 h, 20 μM [4] [%]	blood flow AUC, % of vehicle group mean ([1]; 0.3 mg/kg) [%]	%, ischemia/nonischemia (blood flow on the last day of measurement) ([1]; 0.3 mg/kg) [%]	blood flow AUC, % of vehicle group mean ([1]; 1 mg/kg) [%]	%, ischemia/nonischemia (blood flow on the last day of measurement) ([1]; 1 mg/kg) [%]
N=C(N)NCCC[C@@H]1NC(=O)[C@H](Cc2ccc3ccccc3c2)NC(=O)CSC[C@@H](C(N)=O)NC(=O)[C@H](C2CCCC2)NC(=O)[C@H](Cc2c[nH]c3ccccc23)NC(=O)[C@H](CCCNC(=N)N)NC(=O)[C@@H]2CCSSCC[C@H](NC1=O)C(=O)NCC(=O)N[C@@H](CCNC(=N)N)C(=O)N[C@@H](CC(=O)O)C(=O)N[C@@H](Cc1c[nH]c3ccccc13)C(=O)N2 [Peptide-9] ({CH2CO}-[2Nal]R[hCys]G[Agb]DW[hCys]RW[Gly(cPent)]C-NH2; disulfide 3-8; thioether N-12)	93	95.8	high serum stability; also recorded: higher serum stability	118				
